Measurements as given in US20260224609A1, “TREATMENT OF GUT INFLAMMATORY DISEASES” (priority 2023, published 2026).

How the values were obtained:
[1] = test system: Candida albicans; test: Candida albicans-induced colitis model; format: in vivo, Balb/C female mice; details: after 9 days; 150 mg/kg, curative
Method: The inventors have selected a group of Balb/C female mice under estradiol (2.5 mg/kg; 1 injection every 3 days, for 12 days) to develop a Candida albicans-induced colitis model.
The prevention treatment started during estradiol administration, whereas the curative treatments started 2 days after Candida inoculation. The mice were sacrificed 14 days after the inoculation.

[2] = test system: 2,4,6-trinitrobenzene sulfonic acid (TNBS)-induced colitis; test: TNBS-induced colitis in rats; format: in vivo, rats (Sprague Dauwley)
Method: The inventors have developed a model based on 2,4,6-trinitrobenzene sulfonic acid (TNBS)-induced colitis in rats (Sprague Dauwley); 80 mg/kg. Colorectal distension is measured 14 days prior to the TNBS induction, as well as 21, 35 and 49 days after the TNBS induction.
The bacteria B. breve and La have been formulated in sticks for ingestion; the stability having been validated.

[3] = test system: Caco-2 cells; test: Toxicity test CCK-8 on Caco-2 cells; details: inflammatory conditions, LPS 1 mg/ml
Text: (§1) A cellular model with HT-29 and Caco-2 cells has been established.

[4] = test system: HT-29; test: Toxicity test CCK-8 on HT-29 cells under LPS; details: inflammatory conditions, LPS 10 ng/ml
Text: as §1

[5] = test system: ileo-cecal lesions; test: IBD model: ileo-cecal resection in transgenic HLA-B27 rats; format: in vivo; details: 6 weeks after resection; treatment from week 8
Method: Transgenic HLA-B27 rats have been selected by the inventors as a model for ileo-cecal lesions in Humans (for instance common in Crohn's disease).
Twelve weeks-old rats (40, in five pools) are treated for the resection of distal ileum with proximal colon and the inflammation level was evaluated 6 weeks thereafter.

OC(Cn1cncn1)(Cn1cncn1)c1ccc(F)cc1F [Fluconazole]
mice remaining infected [1]: no mice remaining infected

Oc1cc(O)cc(O)c1 [Spasfon, Phloroglucinol]
macroscopic evaluation (Wallace scoring) ([2]; TNBS condition: 2.25): 1.56
histological analysis of the inflammation (Ameho) ([2]; TNBS+vehicle: 2.00): 1.56
pain threshold ([2]; also with Vitamin D): did not increase the pain threshold

C=C1CC[C@H](O)C/C1=C/C=C1\CCC[C@]2(C)[C@@H]([C@H](C)CCCC(C)C)CC[C@@H]12 [Vitamin D, cholecalciferol (Vitamin D3)]
toxicity (CCK-8) [3]: no toxicity
toxicity (CCK-8) [4]: no toxicity

Nc1ccc(O)c(C(=O)O)c1 [pentasa]
post-operative relapses [5]: markedly reduced
